Measurements from US20220324865A1 (Bayer Aktiengesellschaft, priority 2018, published 2022).
pIC50: −log10 of the molar value.

Molecular target: T1, human EP3 receptor (Homo sapiens, UniProt P43115)
T1 construct: expressed in transfected cells; host or cells: CHO K1 (Chinese Hamster Ovary), stably co-transfected with Galpha16 and mitochondrial clytin
T1 sequence (P43115 1-390): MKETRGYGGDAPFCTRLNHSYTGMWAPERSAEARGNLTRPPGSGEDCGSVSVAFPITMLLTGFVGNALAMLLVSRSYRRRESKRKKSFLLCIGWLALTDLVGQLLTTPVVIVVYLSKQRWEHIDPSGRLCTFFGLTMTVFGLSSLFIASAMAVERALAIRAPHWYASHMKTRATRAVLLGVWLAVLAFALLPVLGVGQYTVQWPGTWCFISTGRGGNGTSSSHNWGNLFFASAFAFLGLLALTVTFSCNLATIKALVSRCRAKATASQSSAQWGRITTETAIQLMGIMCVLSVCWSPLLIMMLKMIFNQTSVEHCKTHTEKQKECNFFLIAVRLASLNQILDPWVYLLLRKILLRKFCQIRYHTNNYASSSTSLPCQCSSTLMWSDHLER
Test: Cellular in vitro assay for determining EP3 receptor activity (human EP3 cell line, sulprostone-stimulated calcium luminescence)
Assay type: cell-based
Conditions: CHO cells expressing human EP3 and mitochondrial Clytin; antagonist mode, sulprostone at EC50; read-out: EP3 CHO mtCLY ANTAG IC50
Summary of the method: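 Antagonist activity was measured as inhibition of the luminescent calcium signal elicited by EC50 sulprostone, following 10 min compound pretreatment. The cell line was recombinant CHO K1 co-expressing human EP3, Gα16 and the photoprotein Clytin, reconstituted with coelenterazine.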

SMILES | pIC50
COc1ccc([C@@H](C)NC(=O)c2cc3c(=O)[nH]c(-c4ccc5c(c4F)OCCO5)cn3n2)cn1 [Example 1-108, 6-(5-Fluoro-2,3-dihydro-1,4-benzodioxin-6-yl)-N-[(1R)-1-(6-methoxpyridin-3-yl)ethyl]-4-oxo-4,5-dihydropyrazolo[1,5-a]pyrazine-2-carboxamide] | 8.60
C[C@@H](NC(=O)c1cc2c(=O)[nH]c(-c3ccc4c(c3)COCC4)cn2n1)c1ccc(F)cc1 [Example 1-112, 6-(3,4-Dihydro-1H-2-benzopyran-7-yl)-N-[(1R)-1-(4-fluorophenyl)ethyl]-4-oxo-4,5-dihydropyrazolo[1,5-a]pyrazine-2-carboxamide] | 8.47
CC(C)C(CNC(=O)c1cc2c(=O)[nH]c(-c3ccc4ccccc4c3)cn2n1)n1cccn1 (stereo not drawn) [Example 2-17, N-[3-Methyl-2-(1H-pyrazol-1-yl)butyl]-6-(2-naphthyl)-4-oxo-4,5-dihydropyrazolo[1,5-a]pyrazine-2-carboxamide] | 8.19
COc1ccc(CNC(=O)c2nn3cc(-c4ccc5ccccc5c4)[nH]c(=O)c3c2C(C)C)cc1OC [Example 1-10, N-(3,4-Dimethoxybenzyl)-6-(naphthalen-2-yl)-4-oxo-3-(propan-2-yl)-4,5-dihydropyrazolo[1,5-a]-pyrazine-2-carboxamide] | 9.24
CC(C)C(NC(=O)c1cc2c(=O)[nH]c(-c3ccc4ccccc4c3)cn2n1)c1cccs1 (stereo not drawn) [Example 2-38, N-[2-Methyl-1-(2-thienyl)propyl]-6-(2-naphthyl)-4-oxo-4,5-dihydropyrazolo[1,5-a]pyrazine-2-carboxamide] | 8.69

The next lines start with the values.

pIC50 | SMILES
8.73 | Cc1cccc2ncc(-c3cn4nc(C(=O)NCCOCC(F)(F)F)c(C(C)C)c4c(=O)[nH]3)cc12 [Example 4-39, 6-(5-Methylquinolin-3-yl)-4-oxo-3-(propan-2-yl)-N-[2-(2,2,2-trifluoroethoxy)ethyl]-4,5-dihydropyrazolo[1,5-a]pyrazine-2-carboxamide]
8.26 | Cc1ccc(-c2cn3nc(C(=O)NCC(O)C(F)(F)F)c(C4CC4)c3c(=O)[nH]2)cc1C(F)(F)F (single isomer, unassigned) [6-244]
8.36 | Cc1c(C(=O)NCc2ccncc2)nn2c(C)c(-c3ccc4ccccc4c3)[nH]c(=O)c12 [Example 3-64, 3,7-Dimethyl-6-(naphthalen-2-yl)-4-oxo-N-[(pyridin-4-yl)methyl]-4,5-dihydropyrazolo[1,5-a]pyrazine-2-carboxamide]
8.40 | Cc1ccc([C@H](C)NC(=O)c2nn3cc(-c4cnc5cccc(C)c5c4)[nH]c(=O)c3c2C(C)C)cc1 [Example 4-56, N-[(7S)-1-(4-Methylphenyl)ethyl]-6-(5-methylquinolin-3-yl)-4-oxo-3-(propan-2-yl)-4,5-dihydropyrazolo[1,5-a]pyrazine-2-carboxamide]
8.37 | Cc1cccc2ncc(-c3cn4nc(C(=O)NC(C)(C)c5cc(Cl)cc(Cl)c5)c(C(C)C)c4c(=O)[nH]3)cc12 [Example 4-8, N-[2-(3,5-Dichlorophenyl)propan-2-yl]-6-(5-methylquinolin-3-yl)-4-oxo-3-(propan-2-yl)-4,5-dihydropyrazolo[1,5-a]pyrazine-2-carboxamide]
8.04 | Cc1ccc(-c2cn3nc(C(=O)NC(C)c4ccc(F)cc4)cc3c(=O)[nH]2)cc1C(F)(F)F (stereo not drawn) [6-25]
8.02 | Cc1ccc(-c2cn3nc(C(=O)NC(CO)C(F)(F)F)c(C(F)(F)F)c3c(=O)[nH]2)cc1Cl (single isomer, unassigned) [6-162]
8.63 | Cc1ccc(-c2cn3nc(C(=O)N[C@H]4c5ccccc5C[C@H]4O)c(C(F)(F)F)c3c(=O)[nH]2)cc1Cl [6-185]
8.97 | Cc1ccc(-c2cn3nc(C(=O)N[C@@H](c4ccc(F)cc4)C(F)(F)CO)c(C4CC4)c3c(=O)[nH]2)cc1F [6-375]
8.39 | Cc1ccc(-c2cn3nc(C(=O)NCC(C)(N)C(F)(F)F)c(C(F)(F)F)c3c(=O)[nH]2)cc1Cl (racemic) [6-169]
